Experiments:
EP1 receptor = molecular target: T1, EP1 receptor (Mus musculus, UniProt P35375); details: read-out: Affinity for the EP1 receptor; cited from earlier work
T1 sequence (P35375 1-405): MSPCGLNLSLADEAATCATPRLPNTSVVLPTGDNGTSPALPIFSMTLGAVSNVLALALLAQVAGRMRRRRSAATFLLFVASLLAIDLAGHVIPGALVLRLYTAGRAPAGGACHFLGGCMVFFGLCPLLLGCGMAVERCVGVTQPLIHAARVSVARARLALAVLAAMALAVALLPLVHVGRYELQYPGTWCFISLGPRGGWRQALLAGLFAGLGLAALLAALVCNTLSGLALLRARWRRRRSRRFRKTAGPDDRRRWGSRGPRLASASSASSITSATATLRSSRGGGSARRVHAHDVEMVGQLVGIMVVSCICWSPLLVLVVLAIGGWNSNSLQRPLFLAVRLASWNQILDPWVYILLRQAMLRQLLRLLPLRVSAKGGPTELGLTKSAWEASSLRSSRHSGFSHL

EP3 receptor = molecular target: T2, EP3 receptor (Mus musculus, UniProt P30557); details: cited from earlier work; for Ki: read-out: Affinity for the EP3 receptor
T2 sequence (P30557 1-365): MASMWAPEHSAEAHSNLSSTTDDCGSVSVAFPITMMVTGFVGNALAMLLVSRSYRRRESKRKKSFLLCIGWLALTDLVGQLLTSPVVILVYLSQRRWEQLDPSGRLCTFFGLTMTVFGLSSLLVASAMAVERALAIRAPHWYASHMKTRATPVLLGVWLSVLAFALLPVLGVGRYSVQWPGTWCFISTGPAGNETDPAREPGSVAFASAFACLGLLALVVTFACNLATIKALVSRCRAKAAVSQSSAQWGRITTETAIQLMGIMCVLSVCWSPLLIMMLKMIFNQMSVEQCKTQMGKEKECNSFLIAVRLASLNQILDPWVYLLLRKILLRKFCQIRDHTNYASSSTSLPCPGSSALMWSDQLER

[1] = tested on: NMDA-induced brain lesion in C57B1/6 WT mice; experiment: NMDA-induced brain lesion volume (excitotoxicity); format: in vivo, mouse; details: 15 nmol NMDA intrastriatal, 48 h
Experimental: (§1) Mice were anesthetized with 3.0% halothane and maintained with 1.0-1.5% continuous flow of halothane in oxygen-enriched air. Then the mice were mounted on a stereotactic frame and injected with 0.2 μl of different doses of ONO-AE-248 (0.5 nmol, 2.5 nmol, or 5.0 nmol) or vehicle (DMSO) via a 1μl Hamilton syringe (Reno, Nev.) into the right lateral ventricle as described previously (Ahmad et al., 2006a). After the injection, the needle was retracted slowly, the hole was plugged with bone wax, and the wound was sutured. Mice were then either transferred to another setup for the MCAO procedure or left in place for NMDA injection (see below).
To investigate the effect of NMDA toxicity in mice lacking the EP3 receptor, WT (n=7) and EP3-/- (n=8) mice were injected in the right striatum with 15 nmol NMDA or vehicle in a volume of 0.3 μl 20 min after being injected with ONO-AE-248, as reported earlier (Ahmad et al., 2006a). After injection, the hole was blocked and the wound sutured, as described above. After the surgical procedures, the animals were transferred to a temperature-regulated chamber to recover from anesthesia. Throughout the stereotactic procedures the rectal temperature of mice was monitored and maintained at 37.0±0.5° C.
At 48 h after NMDA injection, weight and rectal temperature of each mouse was recorded. Then, mice were transcardially perfused with phosphate-buffered saline, followed by 4% paraformaldehyde (pH 7.2), under deep anesthesia. Brains were immediately removed, post-fixed in paraformaldehyde overnight, cryoprotected in sucrose (30%) for 3 days, and frozen in 2-methyl butane (pre-cooled over dry ice). Brain sections cut on a cryostat were collected on microscope slides and stained with Cresyl Violet to estimate lesion volume. Images of the brain sections were taken and analyzed with SigmaScan Pro 5.0 software (Systat Software Inc., Richmond, Calif.) as described previously (Ahmad et al., 2006b).

[2] = tested on: mouse model of middle cerebral artery (MCA) occlusion; experiment: MCAO (90 min) and reperfusion, hemispheric infarct volume; format: in vivo; details: 90 min occlusion, 4 days reperfusion
Experimental: as §1
During the MCAO procedure (FIG. 1, Illustration A), mouse rectal temperature was monitored and maintained at 37.0±0.5° C. by a heating pad, and anesthesia was maintained with continuous flow of halothane in oxygen-enriched air via a nose cone. Relative CBF was monitored with laser-Doppler flowmetry (Moor Instruments, Devon, England) by a flexible fiber optic probe affixed to the skull over the parietal cortex supplied by the MCA (2 mm posterior and 6 mm lateral to the bregma). MCAO was carried out under aseptic conditions with a silicone-coated nylon monofilament as described previously (Shah et al., 2006). […]
Four days after MCAO surgery, mice (n=9/dose) were deeply anesthetized, and their brains were harvested and sliced coronally into five 2-mm-thick sections. […] The area of infarcted brain, identified by the lack of TTC staining, was measured on the rostral and caudal surfaces of each slice and numerically integrated across the thickness of the slice to obtain an estimate of infarct volume in each slice (SigmaScan Pro, SPSS, Port Richmond, Calif., USA). Volumes from all five slices were summed to calculate total infarct volume over the entire hemisphere and expressed as a percentage of the volume of the contralateral structure. […] The corrected infarct volume was calculated as: volume of contralateral hemisphere−(volume of ipsilateral hemisphere−volume of infarct).

mice [3] = experiment: Core body temperature by intra-abdominal radiofrequency probe; format: in vivo, mouse; details: mice without MCAO, room temperature, 4-day experiment
Experimental: A third cohort of mice was implanted with intra-abdominal radiofrequency probes [IPTT-200, Bio. Medic. Data System (BMDS), Seaford, Del.] 7 days before injection of ONO-AE-248 (n=5) or vehicle (n=5). Core temperature was sampled every 10 min for the first 90 min after injection, and then once daily for 4 days at room temperature via receivers (The DAS-5002 Notebook System™; BMDS). This telemetry system minimizes stress and allows temperature control and monitoring in freely moving animals.

rats = details: single ICV injection, 20 nmol; cited from earlier work
EP3 = details: CHO cell lines; cited from earlier work
mice [4] = experiment: Analysis of physiological parameters (arterial blood pH, PaO2, PaCO2, MABP) around MCAO; format: in vivo, mouse; details: before ischemia, during ischemia, during reperfusion; all doses
Experimental: Measurement of physiological parameters was carried out in a group of mice separate from that used to assess infarct volume (FIG. 1, Illustration B). Arterial blood samples collected via femoral catheter were analyzed for pH, PaO2, and PaCO2 before the occlusion, during occlusion, and 1 h after the occlusion. MABP was measured at the same time points by a pressure transducer connected to the femoral catheter.

O=C(O)CCC/C=C\C[C@H]1C(=O)C[C@@H](O)[C@@H]1/C=C/[C@@H](O)CCc1ccccc1 [17-phenyl trinor PGE2]
Ki (EP1 receptor): 14 nM
Ki (EP3 receptor): 21 nM

CCCCC[C@@H](/C=C/[C@H]1[C@H](OC)CC(=O)[C@@H]1C/C=C\CCCC(=O)O)OC [ONO-AE-248]
Effect on NMDA-induced toxicity ([1]; 0.5 nmol ICV pretreatment): did not affect
Effect on NMDA-induced lesion size ([1]; 2.5 nmol ICV pretreatment, p<0.02): significantly and dose-dependently increased
Effect on NMDA-induced lesion size ([1]; 5 nmol ICV pretreatment, p<0.001): significantly and dose-dependently increased
Infarct volume increase as compared with the vehicle-treated group ([2]; 0.5 nmol ICV before MCAO, not statistically significant): 17%
Infarct volume increase as compared with the vehicle-treated group ([2]; 2.5 nmol ICV before MCAO, statistically significant): 34%
Infarct volume increase as compared with the vehicle-treated group ([2]; 5.0 nmol ICV before MCAO, statistically significant): 38%
Effect on core body temperature (mice [3]): did not affect core body temperature
Specificity for EP3 over EP1 (EP3 receptor; EP3 versus EP1): 1333 times
Effect on body temperature (rats): mild hyperthermia was induced
Effect on forskolin-induced increase in cAMP (EP3): prevented the forskolin-induced increase in cAMP
MABP versus vehicle group (mice [4]): No statistically significant differences
PaCO2 versus vehicle group (mice [4]): No statistically significant differences
PaO2 versus vehicle group (mice [4]): No statistically significant differences
pH (arterial blood) versus vehicle group (mice [4]): No statistically significant differences

CS(=O)(=O)NC(=O)CCC/C=C\C[C@H]1C(=O)C[C@@H](O)[C@@H]1/C=C/[C@@H](O)COc1ccccc1 [sulprostone]
Ki (EP1 receptor): 4 nM
Ki (EP3 receptor): 0.6 nM

From patent US20100074896A1, “ANTAGONISTS OF PGE2 EP3 RECEPTORS” (The Johns Hopkins University, priority 2006, published 2010)
